Measured values published in US6683095B2, “CDK inhibitors having 3-hydroxychromen-4-one structure” (LG Life Sciences Ltd., priority 2000, dated 2004).

Experiments:
[1] = biological target: T1, CDK2/cyclin A (Homo sapiens, UniProt P24941); experiment: Inhibitory activity against CDK2 (CDK2/cyclin A kinase assay, GST-Rb substrate, 32P-ATP); type: biochemical; conditions: 100 μM ATP, 30° C., 30 minutes
T1 construct: His; made in house; host or cells: insect cell (baculovirus co-infection)
Experimental: The inhibitory activity against CDK2 was measured by referring to Kitagawa, M. et al., Oncogene 9; 2549, 1994 and that against CDK4 was measured by referring to Carlson, B. A. et al., Cancer Research 56; 2473, 1996.
The part of amino acid positions 780 to 928 of C-terminus of human Rb protein was isolated, N-terminus thereof was labelled with GST protein, large amount thereof was expressed in bacteria and purified to be used as the substrate for the enzyme.
(§1) The activities of CDK2/cyclin A and CDK4/cyclin D1 were determined as follows. About 100 ng of enzyme was reacted in a total 100 μl of 20 mM Tris(pH 8.0), 100 mM NaCl, 10 mM MgCl2 buffer solution containing 20 μg of GST-Rb protein, 100 μM of ATP and 5 μCi of p^32-γ-ATP at 30° C. for 30 minutes. Then, EDTA was added to a concentration of 20 mM to stop the enzyme reaction. Subsequently, 30 μl of 50% glutathione bead (purchased from Pharmacia) was added to attach GST-Rb to the bead, which was washed three times with 20 mM Tris(pH 8.0), 100 mM NaCl, 10 mM EDTA solution, and then scintillation counting was carried out. To analyze the inhibitory activity of the compound, the inhibitor having a proper concentration was added to the enzyme reaction solution, and then the enzyme activity was measured according to the above method.
The inhibitory activity against CDK2 and CDK4 of the compound of formula (1) according to the present invention was represented as IC50 value (see the following Table 1).

[2] = biological target: T2, CDK4/cyclin D1 (Homo sapiens, UniProt P11802); experiment: Inhibitory activity against CDK4 (CDK4/cyclin D1 kinase assay, GST-Rb substrate, 32P-ATP); type: biochemical; conditions: 100 μM ATP, 30° C., 30 minutes
T2 construct: GST; made in house; host or cells: insect cell
T2 sequence (P11802 whole entry): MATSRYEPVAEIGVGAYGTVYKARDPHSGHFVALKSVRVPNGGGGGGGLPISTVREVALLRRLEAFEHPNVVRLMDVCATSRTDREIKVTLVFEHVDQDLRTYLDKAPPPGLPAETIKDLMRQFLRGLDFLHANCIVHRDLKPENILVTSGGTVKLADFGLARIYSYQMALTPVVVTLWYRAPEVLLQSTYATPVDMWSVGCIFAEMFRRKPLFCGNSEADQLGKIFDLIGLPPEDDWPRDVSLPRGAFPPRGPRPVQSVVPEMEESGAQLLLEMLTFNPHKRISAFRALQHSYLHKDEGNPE
T2 sequence (P24385 whole entry partner): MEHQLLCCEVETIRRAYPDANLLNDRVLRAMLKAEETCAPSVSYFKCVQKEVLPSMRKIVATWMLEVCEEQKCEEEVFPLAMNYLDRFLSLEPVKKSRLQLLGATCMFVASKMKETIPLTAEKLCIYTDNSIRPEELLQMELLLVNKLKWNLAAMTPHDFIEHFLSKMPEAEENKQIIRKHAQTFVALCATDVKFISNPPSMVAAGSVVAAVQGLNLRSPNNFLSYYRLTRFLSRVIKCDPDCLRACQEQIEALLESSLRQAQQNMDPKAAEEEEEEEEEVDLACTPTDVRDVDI
Experimental: as §1

Row | SMILES | IC50 [1] [µM] | IC50 [2] [µM]
1 | Cc1cc(N)c2oc(-c3ccc(O)c(N)c3)c(O)c(=O)c2c1 [Compound 1, 8-amino-2-(3-amino-4-hydroxyphenyl)-3-hydroxy-6-methyl-4H-chromen-4-one] | 1.4 | 20
2 | Cc1cc([N+](=O)[O-])c2oc(-c3ccc(O)c([N+](=O)[O-])c3)c(O)c(=O)c2c1 [Compound 2, 2-(4-hydroxy-3-nitrophenyl)-3-hydroxy-6-methyl-8-nitro-4H-chromen-4-one] | 4.5 | 7.7
3 | CC(=O)Nc1cc(C)cc2c(=O)c(O)c(-c3ccc(O)c([N+](=O)[O-])c3)oc12 [Compound 3, N-[2-(4-hydroxy-3-nitrophenyl)-3-hydroxy-6-methyl-4-oxo-4H-chromen-8-yl]acetamide] | 6 | 3.9
4 | Cc1cc(N)c2oc(-c3ccc(O)cc3)c(O)c(=O)c2c1 [Compound 4, 8-amino-2-(4-hydroxyphenyl)-3-hydroxy-6-methyl-4H-chromen-4-one] | 2.1 | 2.1
5 | CC(=O)Nc1cc(-c2oc3ccc(C)cc3c(=O)c2O)ccc1O [Compound 6, N-[2-hydroxy-5-(3-hydroxy-6-methyl-4-oxo-4H-chromen-2-yl)phenyl]acetamide] | 30 | 10
6 | CC(=O)Nc1cc(C)cc2c(=O)c(O)c(-c3ccc(O)c(NC(C)C)c3)oc12 [Compound 7A, N-{2-[4-hydroxy-3-(isopropylamino)phenyl]-3-hydroxy-6-methyl-4-oxo-4H-chromen-8-yl}acetamide] | 18 | 47
7 | CC(=O)Nc1cc(C)cc2c(=O)c(O)c(-c3ccc(O)c(N)c3)oc12 [Compound 7B, N-[2-(3-amino-4-hydroxyphenyl)-3-hydroxy-6-methyl-4-oxo-4H-chromen-8-yl]acetamide] | 3 | 17
8 | Cc1cc(N)c2oc(-c3ccc(O)c(F)c3)c(O)c(=O)c2c1 [Compound 9, 8-amino-2-(3-fluoro-4-hydroxyphenyl)-3-hydroxy-6-methyl-4H-chromen-4-one] | 14 | 16
9 | Cc1cc(NC(N)=O)c2oc(-c3ccc(O)c(NC(N)=O)c3)c(O)c(=O)c2c1 [Compound 10, N-{5-[8-(ureido)-3-hydroxy-6-methyl-4-oxo-4H-chromen-2-yl]-2-hydroxyphenyl}urea] | 30 | 100
10 | Cc1cc(N)c2oc(-c3ccc(N)cc3)c(O)c(=O)c2c1 [Compound 11, 8-amino-2-(4-aminophenyl)-3-hydroxy-6-methyl-4H-chromen-4-one] | 150 | 50
11 | Cc1cc(N)c2oc(-c3cccc(O)c3)c(O)c(=O)c2c1 [Compound 12, 8-amino-3-hydroxy-2-(3-hydroxyphenyl)-6-methyl-4H-chromen-4-one] | 2 | 2.1
12 | Cc1ccc2oc(-c3ccc(O)c(O)c3O)c(O)c(=O)c2c1 [Compound 13, 3-hydroxy-6-methyl-2-(2,3,4-trihydroxyphenyl)-4H-chromen-4-one] | 1000 | 50
13 | Cc1ccc2oc(-c3ccc(O)c(O)c3Br)c(O)c(=O)c2c1 [Compound 14, 2-(2-bromo-3,4-dihydroxyphenyl)-3-hydroxy-6-methyl-4H-chromen-4-one] | 500 | 11
14 | Cc1cc(N2CCCS2(=O)=O)c2oc(-c3ccc(O)c(F)c3)c(O)c(=O)c2c1 [Compound 16, 2-[2-(3-fluoro-4-hydroxyphenyl)-3-hydroxy-6-methyl-4-oxo-4H-chromen-8-yl]-1λ^6-isothiazolidin-1,1-dione] | 0.45 | 1.1
15 | Cc1cc(N2CCCS2(=O)=O)c2oc(-c3ccc(O)c(Br)c3)c(O)c(=O)c2c1 [Compound 18, 2-[2-(3-bromo-4-hydroxyphenyl)-3-hydroxy-6-methyl-4-oxo-4H-chromen-8-yl]-1λ^6-isothiazolidin-1,1-dione] | 0.075 | 0.21
16 | Cc1cc(N2CCCS2(=O)=O)c2oc(-c3ccc(O)c(C#N)c3)c(O)c(=O)c2c1 [Compound 19, 5-[8-(1,1-dioxo-1λ^6-isothiazolidin-2-yl)-3-hydroxy-6-methyl-4-oxo-4H-chromen-2-yl]-2-hydroxybenzonitrile] | 1.4 | 0.79
17 | Cc1cc(N2CCCS2(=O)=O)c2oc(-c3ccc(O)cc3O)c(O)c(=O)c2c1 [Compound 20, 2-[2-(2,4-dihydroxyphenyl)-3-hydroxy-6-methyl-4-oxo-4H-chromen-8-yl]-1λ^6-isothiazolidin-1,1-dione] | 1000 | 500
18 | O=c1c(O)c(-c2ccc(O)cc2)oc2c(N3CCCS3(=O)=O)cc(NCc3ccccc3)cc12 [Compound 28, 2-[6-(benzylamino)-3-hydroxy-2-(4-hydroxyphenyl)-4-oxo-4H-chromen-8-yl]-1λ^6-isothiazolidin-1,1-dione] | 2.24 | 3.2

Now from value to compound:

Row | IC50 [1] [µM] | IC50 [2] [µM] | SMILES
19 | 13 | 24 | Cc1cc(N2CCCS2(=O)=O)c2oc(-c3ccc(F)c(Cl)c3)c(O)c(=O)c2c1 [Compound 21, 2-[2-(3-chloro-4-fluorophenyl)-3-hydroxy-6-methyl-4-oxo-4H-chromen-8-yl]-1λ^6-isothiazolidin-1,1-dione]
20 | 0.7 | 2 | Cc1cc(N2CCCS2(=O)=O)c2oc(-c3ccc(O)c(C)c3)c(O)c(=O)c2c1 [Compound 22, 2-[3-hydroxy-2-(4-hydroxy-3-methylphenyl)-6-methyl-4-oxo-4H-chromen-8-yl]-1λ^6-isothiazolidin-1,1-dione]
21 | 1.5 | 5 | Cc1cc(N2CCCS2(=O)=O)c2oc(-c3ccc(O)c(CO)c3)c(O)c(=O)c2c1 [Compound 23, 2-{3-hydroxy-2-[4-hydroxy-3-(hydroxymethyl)phenyl]-6-methyl-4-oxo-4H-chromen-8-yl}-1λ^6-isothiazolidin-1,1-dione]
22 | 0.25 | 2.1 | Cc1cc(N2CCCS2(=O)=O)c2oc(-c3ccc(O)c(C(F)(F)F)c3)c(O)c(=O)c2c1 [Compound 24, 2-[3-hydroxy-2-(4-hydroxy-3-trifluoromethylphenyl)-6-methyl-4-oxo-4H-chromen-8-yl]-1λ^6-isothiazolidin-1,1-dione]
23 | 0.088 | 1.2 | Nc1cc(N2CCCS2(=O)=O)c2oc(-c3ccc(O)cc3)c(O)c(=O)c2c1 [Compound 25, 2-[6-amino-3-hydroxy-2-(4-hydroxyphenyl)-4-oxo-4H-chromen-8-yl]-1λ^6-isothiazolidin-1,1-dione]
24 | 0.22 | 0.71 | CN(C)c1cc(N2CCCS2(=O)=O)c2oc(-c3ccc(O)cc3)c(O)c(=O)c2c1 [Compound 26, 2-[6-(dimethylamino)-3-hydroxy-2-(4-hydroxyphenyl)-4-oxo-4H-chromen-8-y]-1λ^6-isothiazolidin-1,1-dione]
25 | 9 | 7.1 | CCN(CC)c1cc(N2CCCS2(=O)=O)c2oc(-c3ccc(O)cc3)c(O)c(=O)c2c1 [Compound 27, 2-[6-(diethylamino)-3-hydroxy-2-(4-hydroxyphenyl)-4-oxo-4H-chromen-8-yl]-1λ^6-isothiazolidin-1,1-dione]
26 | 1.8 | 1.7 | O=c1c(O)c(-c2ccc(O)cc2)oc2c(N3CCCS3(=O)=O)cc(NC3CCNCC3)cc12 [Compound 29, 2-[3-hydroxy-2-(4-hydroxyphenyl)-4-oxo-6-(4-piperidinylamino)-4H-chromen-8-yl]-1λ^6-isothiazolidin-1,1-dione]
